Results from patent publication US20130150363A1, “Method of Treating Cancer Using a cMET and AXL Inhibitor and an ErbB Inhibitor” (GlaxoSmithKline, priority 2008, published 2013).

How the values were obtained:
[1] = test system: phosphorylation of HER2, AKT, ERK and cyclin D1 in BT474 cells; experiment: Western blot analysis, BT474; assay type: cell-based, human; conditions: BT474, 1 μM, 4 h
Procedure: (§2) Cells were plated at 250,000 to 500,000 per well in six-well plates (Falcon multiwell, Becton Dickinson, Franklin Lakes, N.J.). The following day, cells were treated with compounds in the growth medium containing 10% FBS. After treatment, cells were washed with cold PBS and lysed in the culture dishes using cell lysis buffer [40 mmol/L Tris-HCl (pH 7.4), 10% glycerol, 50 mmol/L beta-glycerophosphate, 5 mmol/L EGTA, 2 mmol/L EDTA, 0.35 mmol/L vanadate, 10 mmol/L NaF, and 0.3% Triton X-100] containing protease inhibitors (Complete Protease Inhibitor Tablets, Boehringer Mannheim, Indianapolis, Ind.). […] The membrane blots were rinsed with PBS and blocked in Odyssey Blocking buffer for 1 h at RT. Blots were probed with antibodies against specific proteins in blocking buffer plus 0.1% Tween 20 and incubated for 2 h at room temperature. The membranes were washed and incubated with IRDye 680 or IRDye 800 secondary antibodies at RT for 1 h in blocking buffer plus 0.1% Tween 20. The membranes were developed with Odyssey Infrared Imaging System (LI-COR Biosciences, Lincoln, Nebr.).
(§3) Cell lysate (50 μg of total protein) or proteins immunoprecipitated with anti-phospho-Tyrosine antibody were loaded in SDS-PAGE gel. The antibody against specific protein was used in the western blot analysis.

[2] = test system: MKN-45 gastric carcinoma cells; experiment: Cell growth inhibition (CellTiter-Glo), MKN-45; assay type: cell-based; conditions: Homo sapiens, MKN-45, MKN-45 (HER3-over)
From the text: (§1) Esophageal carcinoma cell line OE33 was purchased from ECACC European Collection of Cell Cultures (UK). Breast cancer cell line JIMT-1 and gastric carcinoma cell line MKN-45 were purchased from Deutsche Sammlung von Mikroorganismen and Zellkulturen GmbH (Germany); KPL-4, a human breast cancer cell line was kindly provided by Prof. J Kurebayashi (Kawasaki Medical School, Kurashiki, Japan). […] The LICR-LON-HN5 head and neck carcinoma cell line (HN5) was a gift from the Institute of Cancer Research, Surrey, U.K. HN5C12 was developed by single-cell cloning of HN5 followed by exposure to increasing concentrations of lapatinib. […] Cell growth inhibition was determined via CellTiter-Glo cell viability assays. […] ATP levels were determined by adding Cell Titer Glo0 (Promega), incubating for 20 minutes then the luminescent signal was read on the SpectraMax M5 plate with a 0.5 second integration time. Cell growth was calculated relative to vehicle (DMSO) treated control wells. […] CI values were calculated with the interpolated IC50 values and the mutually non-exclusive equation derived by Chou and […](a)+Db/IC50(b)+(Da×Db)/(IC50(a)×IC50(b)) where IC50(a) is the IC50 of the inhibitor A; IC50(b) is the IC50 for the inhibitor B; […] […] EOHSA at each dose was calculated as the minimum difference in average % inhibition between the combination and each monotherapy, from the appropriate ANOVA contrast. […]

[3] = test system: BT474-J4 lapatinib resistant breast carcinoma cells; experiment: Cell growth inhibition (CellTiter-Glo), BT474-J4; assay type: cell-based; conditions: Homo sapiens; for IC50: 72 h, 3 days
From the text: Esophageal carcinoma cell line OE33 was purchased from ECACC European Collection of Cell Cultures (UK). Breast cancer cell line JIMT-1 and gastric carcinoma cell line MKN-45 were purchased from Deutsche Sammlung von Mikroorganismen and Zellkulturen GmbH (Germany); KPL-4, a human breast cancer cell line was kindly provided by Prof. J Kurebayashi (Kawasaki Medical School, Kurashiki, Japan). […] The LICR-LON-HN5 head and neck carcinoma cell line (HN5) was a gift from the Institute of Cancer Research, Surrey, U.K. HN5C12 was developed by single-cell cloning of HN5 followed by exposure to increasing concentrations of lapatinib. […] Cell growth inhibition was determined via CellTiter-Glo cell viability assays. […] BT474-J4 and HN5C12 were washed with PBS and plated in their culture media without lapatinib. […] ATP levels were determined by adding Cell Titer Glo0 (Promega), incubating for 20 minutes then the luminescent signal was read on the SpectraMax M5 plate with a 0.5 second integration time. Cell growth was calculated relative to vehicle (DMSO) treated control wells. […] Excess Over Highest Single Agent (EOHSA) is defined as a statistically significant improvement in the combination compared to the component monotherapies. […] Analysis was conducted using two-factor analysis of variance with interaction (model terms were dose of drug A, dose of drug B, and interaction between doses of drug A and B), followed by linear contrasts between each combination group and corresponding monotherapies. Analysis was conducted using SAS (version 9, provided by SAS Institute, Cary, N.C.). EOHSA at each dose was calculated as the minimum difference in average % inhibition between the combination and each monotherapy, from the appropriate ANOVA contrast. Since there are many comparisons for the % inhibition endpoint, p-value adjustment for multiple comparisons was performed. Hommel's procedure was implemented in order to improve the power while retaining […] […] The p-values for both synergy and antagonism were calculated using this adjustment.

[4] = test system: OE33 esophageal carcinoma cells; experiment: Cell growth inhibition (CellTiter-Glo), OE33; assay type: cell-based, human; conditions: 3 days
From the text: Esophageal carcinoma cell line OE33 was purchased from ECACC European Collection of Cell Cultures (UK). Breast cancer cell line JIMT-1 and gastric carcinoma cell line MKN-45 were purchased from Deutsche Sammlung von Mikroorganismen and Zellkulturen GmbH (Germany); KPL-4, a human breast cancer cell line was kindly provided by Prof. J Kurebayashi (Kawasaki Medical School, Kurashiki, Japan). […] The LICR-LON-HN5 head and neck carcinoma cell line (HN5) was a gift from the Institute of Cancer Research, Surrey, U.K. HN5C12 was developed by single-cell cloning of HN5 followed by exposure to increasing concentrations of lapatinib. […] Cell growth inhibition was determined via CellTiter-Glo cell viability assays. […] BT474-J4 and HN5C12 were washed with PBS and plated in their culture media without lapatinib. […] ATP levels were determined by adding Cell Titer Glo0 (Promega), incubating for 20 minutes then the luminescent signal was read on the SpectraMax M5 plate with a 0.5 second integration time. Cell growth was calculated relative to vehicle (DMSO) treated control wells. […] Excess Over Highest Single Agent (EOHSA) is defined as a statistically significant improvement in the combination compared to the component monotherapies. […] Analysis was conducted using two-factor analysis of variance with interaction (model terms were dose of drug A, dose of drug B, and interaction between doses of drug A and B), followed by linear contrasts between each combination group and corresponding monotherapies. Analysis was conducted using SAS (version 9, provided by SAS Institute, Cary, N.C.). EOHSA at each dose was calculated as the minimum difference in average % inhibition between the combination and each monotherapy, from the appropriate ANOVA contrast. Since there are many comparisons for the % inhibition endpoint, p-value adjustment for multiple comparisons was performed. Hommel's procedure was implemented in order to improve the power while retaining […] Error Rate (FWE) control by using a sequentially rejective method. The p-values for both synergy and antagonism were calculated using this adjustment.

[5] = test system: HS746T gastric carcinoma cells; experiment: Cell growth inhibition (CellTiter-Glo), HS746T; assay type: cell-based; conditions: Homo sapiens, HS746T (HER3-low)
From the text: as §1

[6] = test system: phosphorylation of HER2, AXL, AKT, ERK and cyclin D1 in BT474-J4 cells; experiment: Western blot analysis, BT474-J4; conditions: BT474-J4, 1 μM each, 4 h
Procedure: as §2, §3

[7] = test system: SW48 colon carcinoma cells; experiment: Cell growth inhibition (CellTiter-Glo), SW48; assay type: cell-based; conditions: Homo sapiens, SW48, 72 h, 3 days
From the text: as §1

[8] = test system: AGS gastric carcinoma cells; experiment: Cell growth inhibition (CellTiter-Glo), AGS; assay type: cell-based; conditions: Homo sapiens, 72 h, gastric_AGS, 3 days
From the text: as §1

[9] = test system: SNU-16 gastric carcinoma cells; experiment: Cell growth inhibition (CellTiter-Glo), SNU-16; assay type: cell-based; conditions: Homo sapiens, SNU-16, 72 h, 3 days
From the text: as §1

| IC50 ([2]; +HRG (10 ng/mL)) [µM] | IC50 ([2]; −HRG) [µM] | IC50 ([3]; breast_BT474-J4, +HGF (2 ng/mL)) [µM] | IC50 ([3]; breast_BT474-J4, −HGF) [µM] | IC50 ([4]; Homo sapiens, OE33, 72 h, eso_OE33, +HGF (2 ng/mL)) [µM] | IC50 ([4]; Homo sapiens, OE33, 72 h, eso_OE33, −HGF) [µM] | IC50 ([4]; eso_OE33, +HGF (2 ng/mL)) [µM] | IC50 ([4]; eso_OE33, −HGF) [µM] | IC50 ([5]; +HRG (10 ng/mL)) [µM] | IC50 ([5]; −HRG) [µM] | IC50 ([7]; colon_SW48, +HGF (2 ng/mL)) [µM] | IC50 ([7]; colon_SW48, −HGF) [µM] | IC50 ([8]; +HGF (2 ng/mL)) [µM] | IC50 ([8]; −HGF) [µM] | IC50 ([9]; gastric_SNU16, +HGF (2 ng/mL)) [µM] | IC50 ([9]; gastric_SNU16, −HGF) [µM] | Structure (SMILES) | downstream signaling: phosphorylation of AKT and ERK, level of cyclin D1 [1] | phosphorylation of HER2 [1] | inhibition at 1 µM ([3]; BT474-J4, lapatinib by itself at 1.0 μM (FIG. 5A)) [%] | phosphorylation of HER2 [6] |
| --- | --- | --- | --- | --- | --- | --- | --- | --- | --- | --- | --- | --- | --- | --- | --- | --- | --- | --- | --- | --- |
| 5.06 | 6.16 | > 10 | > 10 | > 10 | 6.5 | 5.52 | 6.52 | 7.37 | 7.69 | – | – | – | – | – | – | CS(=O)(=O)CCNCc1ccc(-c2ccc3ncnc(Nc4ccc(OCc5cccc(F)c5)c(Cl)c4)c3c2)o1 [Lapatinib, N-(3-chloro-4-{[(3-fluorophenyl)methyl]oxy}phenyl)-6-[5-({[2-(methylsulfonyl)ethyl]amino}methyl)-2-furanyl]-4-quinazolinamine] | inhibits | inhibits | < 50 | inhibits |
| – | – | – | – | – | – | – | – | – | – | 2.62 | 2.35 | > 10 | > 10 | 9.37 | 6.46 | C#Cc1cccc(Nc2ncnc3cc(OCCOC)c(OCCOC)cc23)c1 [Erlotinib, N-(3-ethynylphenyl)-6,7-bis{[2-(methyloxy)ethyl]oxy}-4-quinazolinamine] | – | – | – | – |
